In PubChem BioAssay (NCI):
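In this assay, cells in 96-well plates receive the compound at five concentrations for 48 hours. Endpoints are linearly interpolated between the surrounding concentrations. At the TGI there is no net growth.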

Key:
Test in all cases: DTP human tumour cell line panel, 48 h
786-0 renal = system: 786-0 renal
A498 renal = system: A498 renal
A549 NSCLC = system: A549 NSCLC
ACHN renal = system: ACHN renal
BT-549 breast = system: BT-549 breast
CAKI-1 renal = system: CAKI-1 renal
CCRF-CEM leukemia = system: CCRF-CEM leukemia
COLO 205 colon = system: COLO 205 colon
DU-145 prostate = system: DU-145 prostate
EKVX NSCLC = system: EKVX NSCLC
HCC-2998 colon = system: HCC-2998 colon
HCT-116 colon = system: HCT-116 colon
HCT-15 colon = system: HCT-15 colon
HL-60(TB) leukemia = system: HL-60(TB) leukemia
HOP-62 NSCLC = system: HOP-62 NSCLC
HOP-92 NSCLC = system: HOP-92 NSCLC
HS 578T breast = system: HS 578T breast
HT29 colon = system: HT29 colon
IGROV1 ovarian = system: IGROV1 ovarian
K-562 leukemia = system: K-562 leukemia
KM12 colon = system: KM12 colon
LOX IMVI melanoma = system: LOX IMVI melanoma
M14 melanoma = system: M14 melanoma
MCF7 breast = system: MCF7 breast
MDA-MB-231 breast = system: MDA-MB-231 breast
MDA-MB-435 = system: MDA-MB-435
MDA-N = system: MDA-N
MOLT-4 leukemia = system: MOLT-4 leukemia
NCI-H226 lung = system: NCI-H226 lung
NCI-H23 lung = system: NCI-H23 lung
NCI-H460 lung = system: NCI-H460 lung
NCI/ADR-RES ovarian = system: NCI/ADR-RES ovarian
OVCAR-3 ovarian = system: OVCAR-3 ovarian
OVCAR-4 ovarian = system: OVCAR-4 ovarian
OVCAR-5 ovarian = system: OVCAR-5 ovarian
OVCAR-8 ovarian = system: OVCAR-8 ovarian
PC-3 prostate = system: PC-3 prostate
RPMI-8226 leukemia = system: RPMI-8226 leukemia
RXF 393 renal = system: RXF 393 renal
SF-268 CNS = system: SF-268 CNS
SF-295 CNS = system: SF-295 CNS
SF-539 CNS = system: SF-539 CNS
SK-MEL-2 melanoma = system: SK-MEL-2 melanoma
SK-MEL-28 melanoma = system: SK-MEL-28 melanoma
SK-MEL-5 melanoma = system: SK-MEL-5 melanoma
SK-OV-3 ovarian = system: SK-OV-3 ovarian
SN12C renal = system: SN12C renal
SNB-19 CNS = system: SNB-19 CNS
SR leukemia = system: SR leukemia
T-47D breast = system: T-47D breast
TK-10 renal = system: TK-10 renal
U251 CNS = system: U251 CNS
UACC-257 melanoma = system: UACC-257 melanoma
UACC-62 melanoma = system: UACC-62 melanoma
UO-31 renal = system: UO-31 renal
MALME-3M melanoma = system: MALME-3M melanoma
NCI-H522 lung = system: NCI-H522 lung
SW-620 colon = system: SW-620 colon

CCOC(=O)c1c(C)n([O-])c2cc(Cl)c(Cl)cc2[n+]1=O
TGI (786-0 renal): 84.5 µM
TGI (A498 renal): 58 µM
TGI (A549 NSCLC): 35.6 µM
TGI (ACHN renal): > 100 µM
TGI (BT-549 breast): 75.9 µM
TGI (CAKI-1 renal): 53 µM
TGI (CCRF-CEM leukemia): 45.9 µM
TGI (COLO 205 colon): 39 µM
TGI (DU-145 prostate): 30.8 µM
TGI (EKVX NSCLC): 74.4 µM
TGI (HCC-2998 colon): 29.1 µM
TGI (HCT-116 colon): 46.3 µM
TGI (HCT-15 colon): 37.2 µM
TGI (HL-60(TB) leukemia): 24.6 µM
TGI (HOP-62 NSCLC): 57.8 µM
TGI (HOP-92 NSCLC): 33.2 µM
TGI (HS 578T breast): 58.3 µM
TGI (HT29 colon): > 100 µM
TGI (IGROV1 ovarian): 24.1 µM
TGI (K-562 leukemia): > 100 µM
TGI (KM12 colon): 27.5 µM
TGI (LOX IMVI melanoma): 38.4 µM
TGI (M14 melanoma): 43.9 µM
TGI (MCF7 breast): > 100 µM
TGI (MDA-MB-231 breast): 51.3 µM
TGI (MDA-MB-435): 55.1 µM
TGI (MDA-N): > 100 µM
TGI (MOLT-4 leukemia): 42.8 µM
TGI (NCI-H226 lung): 33.5 µM
TGI (NCI-H23 lung): 26.6 µM
TGI (NCI-H460 lung): 40.7 µM
TGI (NCI/ADR-RES ovarian): 66.6 µM
TGI (OVCAR-3 ovarian): 37.1 µM
TGI (OVCAR-4 ovarian): 33.9 µM
TGI (OVCAR-5 ovarian): > 100 µM
TGI (OVCAR-8 ovarian): 53 µM
TGI (PC-3 prostate): > 100 µM
TGI (RPMI-8226 leukemia): 34.9 µM
TGI (RXF 393 renal): 50.3 µM
TGI (SF-268 CNS): 76 µM
TGI (SF-295 CNS): > 100 µM
TGI (SF-539 CNS): > 100 µM
TGI (SK-MEL-2 melanoma): 52 µM
TGI (SK-MEL-28 melanoma): > 100 µM
TGI (SK-MEL-5 melanoma): 36.5 µM
TGI (SK-OV-3 ovarian): 85.9 µM
TGI (SN12C renal): 51.9 µM
TGI (SNB-19 CNS): > 100 µM
TGI (SR leukemia): 25.8 µM
TGI (T-47D breast): 60.1 µM
TGI (TK-10 renal): 54.8 µM
TGI (U251 CNS): > 100 µM
TGI (UACC-257 melanoma): 44.5 µM
TGI (UACC-62 melanoma): 32.5 µM
TGI (UO-31 renal): 67.1 µM

CCOC(=O)c1c(C)n(C)c2c1cc(O)c1[nH]c3c(c12)CCCC3
TGI (786-0 renal): 42.3 µM
TGI (A549 NSCLC): 58.7 µM
TGI (ACHN renal): > 100 µM
TGI (BT-549 breast): > 100 µM
TGI (CAKI-1 renal): > 100 µM
TGI (CCRF-CEM leukemia): 43.6 µM
TGI (COLO 205 colon): 23.5 µM
TGI (DU-145 prostate): > 100 µM
TGI (EKVX NSCLC): 45.1 µM
TGI (HCT-116 colon): 50.3 µM
TGI (HCT-15 colon): > 100 µM
TGI (HL-60(TB) leukemia): 46.7 µM
TGI (HOP-62 NSCLC): > 100 µM
TGI (HOP-92 NSCLC): 16.8 µM
TGI (HS 578T breast): 87.4 µM
TGI (HT29 colon): 49.4 µM
TGI (IGROV1 ovarian): 37.2 µM
TGI (K-562 leukemia): 40.3 µM
TGI (KM12 colon): 37.3 µM
TGI (LOX IMVI melanoma): 29.7 µM
TGI (M14 melanoma): 29.2 µM
TGI (MALME-3M melanoma): 31.7 µM
TGI (MCF7 breast): 19.4 µM
TGI (MDA-MB-231 breast): 43.9 µM
TGI (MDA-MB-435): 29.6 µM
TGI (MDA-N): 34.3 µM
TGI (MOLT-4 leukemia): 45.6 µM
TGI (NCI-H23 lung): 52.7 µM
TGI (NCI-H460 lung): 42.9 µM
TGI (NCI-H522 lung): 28.7 µM
TGI (NCI/ADR-RES ovarian): 54 µM
TGI (OVCAR-3 ovarian): 25.1 µM
TGI (OVCAR-4 ovarian): 23.5 µM
TGI (OVCAR-5 ovarian): 65.1 µM
TGI (OVCAR-8 ovarian): 66.3 µM
TGI (PC-3 prostate): 46.6 µM
TGI (RPMI-8226 leukemia): 18.7 µM
TGI (SF-268 CNS): 21.8 µM
TGI (SF-295 CNS): > 100 µM
TGI (SF-539 CNS): 37.9 µM
TGI (SK-MEL-2 melanoma): 37 µM
TGI (SK-MEL-28 melanoma): 32.8 µM
TGI (SK-MEL-5 melanoma): 25.6 µM
TGI (SK-OV-3 ovarian): > 100 µM
TGI (SN12C renal): 61.3 µM
TGI (SNB-19 CNS): > 100 µM
TGI (SW-620 colon): 44.1 µM
TGI (T-47D breast): 48.4 µM
TGI (TK-10 renal): 60.9 µM
TGI (U251 CNS): 36.8 µM
TGI (UACC-257 melanoma): 31.7 µM
TGI (UACC-62 melanoma): 35.8 µM
TGI (UO-31 renal): 69.9 µM
